# Reference: patent publication US7261906B2, “Anti-cancer therapy agent of arsenic hexoxide (As4O6) of a natural chemical substance and its pharmaceutical composition” (priority 1998, dated 2007)
# Experiment: Acute toxicity, single oral administration
# Assay type: in vivo, Rats (Sprague Dawley strain)
# Conditions: for Mortality, Days after treatment 1 / Mortality, Days after treatment 2 / Mortality, Days after treatment 3 / Mortality, Days after treatment 4 / Mortality, Days after treatment 5 / Mortality, Days after treatment 6 / Mortality, Days after treatment 7 / Mortality, Days after treatment 8 / Mortality, Days after treatment 9 / Mortality, Days after treatment 10 / Mortality, Days after treatment 11 / Mortality, Days after treatment 12 / Mortality, Days after treatment 13 / Mortality, Days after treatment 14 / Mortality, Hours after treatment 1 / Mortality, Hours after treatment 2 / Mortality, Hours after treatment 3 / Mortality, Hours after treatment 4 / Mortality, Hours after treatment 5 / Mortality, Hours after treatment 6 / Final mortality / Final mortality (dead/total): male
# Procedure: The acute toxicity of oral administration of HD-2 was evaluated according to toxicity assessment criteria described in Article 96-8 of Notice on Food and Drug Safety (Apr. 16, 1994). Rats (Sprague Dawley strain) were used for animal experiments. Dosage of a single, oral administration ranged from 0.4 to 1.25 g/kg body weight in male rats and 0.4 to […] body weight in female rats. General conditions of the animals, toxic symptoms, and mortality were measured every hour for the initial 6 hours following the single administration and once a day afterwards for 14 days. Body weights were measured before starting the study, 7 days after the administration, and at autopsy. Expired rats were studied to find the cause of death at autopsy. […] Some rats manifesting these clinical symptoms expired, but others recovered to normal condition within 2 to 3 days of clinical symptoms.
compound,measurement,setting,value
"O1[As]2O[As]3O[As]1O[As](O2)O3 [HD-2, arsenic hexoxide (As4O6)]","Mortality, Days after treatment 1",0.4 g/kg B.W. oral,0
same,"Mortality, Days after treatment 2",0.4 g/kg B.W. oral,0
same,"Mortality, Days after treatment 3",0.4 g/kg B.W. oral,0
same,"Mortality, Days after treatment 4",0.4 g/kg B.W. oral,0
same,"Mortality, Days after treatment 5",0.4 g/kg B.W. oral,0
same,"Mortality, Days after treatment 6",0.4 g/kg B.W. oral,0
same,"Mortality, Days after treatment 7",0.4 g/kg B.W. oral,0
same,"Mortality, Days after treatment 8",0.4 g/kg B.W. oral,0
same,"Mortality, Days after treatment 9",0.4 g/kg B.W. oral,0
same,"Mortality, Days after treatment 10",0.4 g/kg B.W. oral,0
same,"Mortality, Days after treatment 11",0.4 g/kg B.W. oral,0
same,"Mortality, Days after treatment 12",0.4 g/kg B.W. oral,0
same,"Mortality, Days after treatment 13",0.4 g/kg B.W. oral,0
same,"Mortality, Days after treatment 14",0.4 g/kg B.W. oral,0
same,"Mortality, Hours after treatment 1",0.4 g/kg B.W. oral,0
same,"Mortality, Hours after treatment 2",0.4 g/kg B.W. oral,0
same,"Mortality, Hours after treatment 3",0.4 g/kg B.W. oral,0
same,"Mortality, Hours after treatment 4",0.4 g/kg B.W. oral,0
same,"Mortality, Hours after treatment 5",0.4 g/kg B.W. oral,0
same,"Mortality, Hours after treatment 6",0.4 g/kg B.W. oral,0
same,Final mortality,"0.4 g/kg B.W. oral, 14 days",0%
same,Final mortality (dead/total),"0.4 g/kg B.W. oral, 14 days",0/5
same,"Mortality, Days after treatment 1",0.6 g/kg B.W. oral,0
same,"Mortality, Days after treatment 2",0.6 g/kg B.W. oral,0
same,"Mortality, Days after treatment 3",0.6 g/kg B.W. oral,0
same,"Mortality, Days after treatment 4",0.6 g/kg B.W. oral,0
same,"Mortality, Days after treatment 5",0.6 g/kg B.W. oral,0
same,"Mortality, Days after treatment 6",0.6 g/kg B.W. oral,0
same,"Mortality, Days after treatment 7",0.6 g/kg B.W. oral,0
same,"Mortality, Days after treatment 8",0.6 g/kg B.W. oral,0
same,"Mortality, Days after treatment 9",0.6 g/kg B.W. oral,0
same,"Mortality, Days after treatment 10",0.6 g/kg B.W. oral,0
same,"Mortality, Days after treatment 11",0.6 g/kg B.W. oral,0
same,"Mortality, Days after treatment 12",0.6 g/kg B.W. oral,0
same,"Mortality, Days after treatment 13",0.6 g/kg B.W. oral,0
same,"Mortality, Days after treatment 14",0.6 g/kg B.W. oral,0
same,"Mortality, Hours after treatment 1",0.6 g/kg B.W. oral,0
same,"Mortality, Hours after treatment 2",0.6 g/kg B.W. oral,0
same,"Mortality, Hours after treatment 3",0.6 g/kg B.W. oral,0
same,"Mortality, Hours after treatment 4",0.6 g/kg B.W. oral,0
same,"Mortality, Hours after treatment 5",0.6 g/kg B.W. oral,0
same,"Mortality, Hours after treatment 6",0.6 g/kg B.W. oral,0
same,Final mortality,"0.6 g/kg B.W. oral, 14 days",0%
same,Final mortality (dead/total),"0.6 g/kg B.W. oral, 14 days",0/5
same,"Mortality, Days after treatment 1",0.8 g/kg B.W. oral,1
same,"Mortality, Days after treatment 2",0.8 g/kg B.W. oral,1
same,"Mortality, Days after treatment 3",0.8 g/kg B.W. oral,0
same,"Mortality, Days after treatment 4",0.8 g/kg B.W. oral,0
same,"Mortality, Days after treatment 5",0.8 g/kg B.W. oral,0
same,"Mortality, Days after treatment 6",0.8 g/kg B.W. oral,0
same,"Mortality, Days after treatment 7",0.8 g/kg B.W. oral,0
same,"Mortality, Days after treatment 8",0.8 g/kg B.W. oral,0
same,"Mortality, Days after treatment 9",0.8 g/kg B.W. oral,0
same,"Mortality, Days after treatment 10",0.8 g/kg B.W. oral,0
same,"Mortality, Days after treatment 11",0.8 g/kg B.W. oral,0
same,"Mortality, Days after treatment 12",0.8 g/kg B.W. oral,0
same,"Mortality, Days after treatment 13",0.8 g/kg B.W. oral,0
same,"Mortality, Days after treatment 14",0.8 g/kg B.W. oral,0
same,"Mortality, Hours after treatment 1",0.8 g/kg B.W. oral,0
same,"Mortality, Hours after treatment 2",0.8 g/kg B.W. oral,0
same,"Mortality, Hours after treatment 3",0.8 g/kg B.W. oral,0
same,"Mortality, Hours after treatment 4",0.8 g/kg B.W. oral,0
same,"Mortality, Hours after treatment 5",0.8 g/kg B.W. oral,0
same,"Mortality, Hours after treatment 6",0.8 g/kg B.W. oral,0
same,Final mortality,"0.8 g/kg B.W. oral, 14 days",10%
same,Final mortality (dead/total),"0.8 g/kg B.W. oral, 14 days",2/5
same,"Mortality, Days after treatment 1",0.85 g/kg B.W. oral,2
same,"Mortality, Days after treatment 2",0.85 g/kg B.W. oral,1
same,"Mortality, Days after treatment 3",0.85 g/kg B.W. oral,0
same,"Mortality, Days after treatment 4",0.85 g/kg B.W. oral,0
same,"Mortality, Days after treatment 5",0.85 g/kg B.W. oral,0
same,"Mortality, Days after treatment 6",0.85 g/kg B.W. oral,0
same,"Mortality, Days after treatment 7",0.85 g/kg B.W. oral,0
same,"Mortality, Days after treatment 8",0.85 g/kg B.W. oral,0
same,"Mortality, Days after treatment 9",0.85 g/kg B.W. oral,0
same,"Mortality, Days after treatment 10",0.85 g/kg B.W. oral,0
same,"Mortality, Days after treatment 11",0.85 g/kg B.W. oral,0
same,"Mortality, Days after treatment 12",0.85 g/kg B.W. oral,0
same,"Mortality, Days after treatment 13",0.85 g/kg B.W. oral,0
same,"Mortality, Days after treatment 14",0.85 g/kg B.W. oral,0
same,"Mortality, Hours after treatment 1",0.85 g/kg B.W. oral,0
same,"Mortality, Hours after treatment 2",0.85 g/kg B.W. oral,0
same,"Mortality, Hours after treatment 3",0.85 g/kg B.W. oral,0
same,"Mortality, Hours after treatment 4",0.85 g/kg B.W. oral,0
same,"Mortality, Hours after treatment 5",0.85 g/kg B.W. oral,0
same,"Mortality, Hours after treatment 6",0.85 g/kg B.W. oral,0
same,Final mortality,"0.85 g/kg B.W. oral, 14 days",60%
same,Final mortality (dead/total),"0.85 g/kg B.W. oral, 14 days",3/5
same,"Mortality, Days after treatment 1",1.25 g/kg B.W. oral,3
same,"Mortality, Days after treatment 2",1.25 g/kg B.W. oral,1
same,"Mortality, Days after treatment 3",1.25 g/kg B.W. oral,0
same,"Mortality, Days after treatment 4",1.25 g/kg B.W. oral,0
same,"Mortality, Days after treatment 5",1.25 g/kg B.W. oral,0
same,"Mortality, Days after treatment 6",1.25 g/kg B.W. oral,0
same,"Mortality, Days after treatment 7",1.25 g/kg B.W. oral,0
same,"Mortality, Days after treatment 8",1.25 g/kg B.W. oral,0
same,"Mortality, Days after treatment 9",1.25 g/kg B.W. oral,0
same,"Mortality, Days after treatment 10",1.25 g/kg B.W. oral,0
same,"Mortality, Days after treatment 11",1.25 g/kg B.W. oral,0
same,"Mortality, Days after treatment 12",1.25 g/kg B.W. oral,0
same,"Mortality, Days after treatment 13",1.25 g/kg B.W. oral,0
same,"Mortality, Days after treatment 14",1.25 g/kg B.W. oral,0
same,"Mortality, Hours after treatment 1",1.25 g/kg B.W. oral,0
same,"Mortality, Hours after treatment 2",1.25 g/kg B.W. oral,0
same,"Mortality, Hours after treatment 3",1.25 g/kg B.W. oral,0
same,"Mortality, Hours after treatment 4",1.25 g/kg B.W. oral,0
same,"Mortality, Hours after treatment 5",1.25 g/kg B.W. oral,0
same,"Mortality, Hours after treatment 6",1.25 g/kg B.W. oral,0
same,Final mortality,"1.25 g/kg B.W. oral, 14 days",100%
same,Final mortality (dead/total),"1.25 g/kg B.W. oral, 14 days",5/5
same,side effect,"rats, single administration of 500 mg/kg body weight per day",did not have any side effect
same,Autopsy findings of rats expired during the study period,single oral administration,expanded stomach and engorged liver
same,Autopsy findings of rats killed at the end of the study,"single oral administration, 14 days",Significant findings related to HD-2 administration were not observed
same,Clinical symptoms,within 3 days of single oral administration,dose-dependent depression and dyspnea
